The record followed here is patent US20170119776A1, “CHIRAL 2,5-DISUBSTITUTED CYCLOPENTANECARBOXYLIC ACID DERIVATIVES AND USE THEREOF” (BAYER PHARMA AKTIENGESELLSCHAFT, priority 2014, published 2017).

SMILES strings stand for the structures.

Holding throughout (assay type): biochemical
In test [1] the target is T1, MMP-8 of the mouse (Mus musculus, UniProt O70138).
T1 construct: purchased R&D Systems 2904-MP
Kind of test: In vitro MMP-8 inhibition test of the mouse. An excerpt: (§1) The activity strength of the compounds according to the invention towards other MMPs (and therefore their selectivity) is likewise ascertained in in vitro inhibition tests. The MMP-mediated amidolytic cleavage of a suitable peptide substrate also leads here to a fluorescent light increase. The signal intensity of the fluorescent light is directly proportional to the enzyme activity. The active concentration of a test compound at which half of the enzyme is inhibited (50% signal intensity of the fluorescent light) is given as IC50 value.
(§2) Recombinant MMP-8 of the mouse (R&D Systems, 2904-MP) is chemically activated in accordance with the manufacturer's instructions using APMA. 1 μl of the test compound to be analysed (as a solution in DMSO, suitable concentrations e.g. 1 nM to 30 μM) is pipetted into 24 μl of activated enzyme (final concentration e.g. 2 nM) in reaction buffer (50 mM Tris/HCl pH 7.5, 10 mM CaCl2, 150 mM NaCl, 0.05% Brij®-35) in a white 384-hole microtiter plate (MTP). The enzymatic reaction is started by adding the intramolecularly quenched substrate Mca-Lys-Pro-Leu-Gly-Leu-Dpa(Dnp)-Ala-Arg-NH2 (final concentration e.g. 5 μM; R&D Systems, ES-010), such that a total test volume of 50 μl results. The progress of the MMP-8 reaction is measured by measuring the fluorescence intensity (excitation 320 nm, emission 410 nm) over a suitable period (e.g. over 120 min at a temperature of 32° C.).
(§3) Tables 3A and 3B below give the IC50 values from these tests for the inhibition of rodent MMPs for representative embodiment examples of the present invention and also for two structurally related comparison compounds from the prior art (as racemate and separated enantiomer)→(in part as average values from several independent individual determinations and rounded to two significant places). The IC50 values were determined for racemates and enantiomers from differently generated DMSO stock solutions. Whereas an automatically created DMSO stock solution from the internal substance logistics was used for racemates by means of a standard method, in the case of enantiomers, in each case a freshly produced, manually prepared DMSO stock solution was used for a more precise direct comparison of the enantiomers with one another.

Test [2] deals with T2, MMP-7 (Homo sapiens, UniProt P09237).
T2 construct: purchased R&D Systems 907-MP
T2 sequence (P09237 95-267): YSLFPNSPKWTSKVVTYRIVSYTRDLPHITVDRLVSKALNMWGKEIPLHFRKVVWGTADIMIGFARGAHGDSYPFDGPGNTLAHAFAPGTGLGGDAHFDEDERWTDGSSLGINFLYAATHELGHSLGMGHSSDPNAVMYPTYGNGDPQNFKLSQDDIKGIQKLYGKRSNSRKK
Kind of test: In vitro MMP-7 inhibition test.
Source text: as §1
(§4) Recombinant MMP-7 (R&D Systems, 907-MP) is chemically activated in accordance with the manufacturer's instructions using APMA. 1 μl of the test compound to be analysed (as a solution in DMSO, suitable concentrations e.g. 1 nM to 30 μM) is pipette into 24 μl of activated enzyme (final concentration e.g. 0.5 nM) in reaction buffer (50 mM Tris/HCl pH 7.5, 10 mM CaCl2, 150 mM NaCl, 0.05% Brij®-35) in a white 384-hole microtiter plate (MTP). The enzymatic reaction is started by adding the intramolecularly quenched substrate Mca-Pro-Leu-Gly-Leu-Dpa(Dnp)-Ala-Arg-NH2 (final concentration e.g. 10 μM; R&D Systems, ES-001), such that a total test volume of 50 μl results. The progress of the MMP-7 reaction is measured by measuring the fluorescence intensity (excitation 320 nm, emission 410 nm) over a suitable period (e.g. over 120 min at a temperature of 32° C.).
(§5) The IC50 values were determined for racemates and enantiomers from differently generated DMSO stock solutions. Whereas an automatically produced DMSO stock solution from the internal substance logistics was used for racemates by means of a standard method, in the case of enantiomers a freshly produced, manually prepared DMSO stock solution was used in each case for a more precise direct comparison of the enantiomers with one another.

Test [3] addresses T3, MMP-7 of the mouse (Mus musculus, UniProt Q10738).
T3 construct: purchased R&D Systems 2967-MP
T3 sequence (Q10738 95-264): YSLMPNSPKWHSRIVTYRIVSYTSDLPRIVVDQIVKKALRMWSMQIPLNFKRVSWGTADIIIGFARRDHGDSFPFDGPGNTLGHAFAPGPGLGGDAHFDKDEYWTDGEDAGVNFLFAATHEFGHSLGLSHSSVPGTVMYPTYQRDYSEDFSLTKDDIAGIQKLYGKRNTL
Put plainly: In vitro MMP-7 inhibition test of the mouse.
Source text: as §1
as §2, with “Recombinant MMP-7” for “Recombinant MMP-8”, “Systems, 2967-MP)” for “Systems, 2904-MP)”, “e.g. 0.5” for “e.g. 2”, “the MMP-7” for “the MMP-8”
as §3

The target in test [4] is T4, MMP-10 (Homo sapiens, UniProt P09238).
T4 construct: purchased R&D Systems 910-MP
Put plainly: In vitro MMP-10 inhibition test.
Source text: as §1
as §4, with “MMP-10” for “MMP-7”, “910-MP)” for “907-MP)”, “2” for “0.5”, “Mca-Arg-Pro-Lys-Pro-Val-Glu-Nval-Trp-Arg-Lys(Dnp)-NH2” for “Mca-Pro-Leu-Gly-Leu-Dpa(Dnp)-Ala-Arg-NH2”, “ES-002),” for “ES-001),”
as §5

T4 sequence (P09238 99-476): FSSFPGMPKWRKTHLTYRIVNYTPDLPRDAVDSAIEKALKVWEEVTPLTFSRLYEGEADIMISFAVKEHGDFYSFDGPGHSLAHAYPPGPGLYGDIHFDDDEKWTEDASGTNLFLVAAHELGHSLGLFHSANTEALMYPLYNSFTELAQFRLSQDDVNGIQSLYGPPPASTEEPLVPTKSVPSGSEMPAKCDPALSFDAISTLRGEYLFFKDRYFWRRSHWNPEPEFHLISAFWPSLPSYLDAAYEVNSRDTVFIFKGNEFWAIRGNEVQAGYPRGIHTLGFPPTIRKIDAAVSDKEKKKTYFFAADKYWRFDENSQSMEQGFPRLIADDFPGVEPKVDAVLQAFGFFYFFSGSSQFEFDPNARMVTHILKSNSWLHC
T1 sequence (O70138 101-465): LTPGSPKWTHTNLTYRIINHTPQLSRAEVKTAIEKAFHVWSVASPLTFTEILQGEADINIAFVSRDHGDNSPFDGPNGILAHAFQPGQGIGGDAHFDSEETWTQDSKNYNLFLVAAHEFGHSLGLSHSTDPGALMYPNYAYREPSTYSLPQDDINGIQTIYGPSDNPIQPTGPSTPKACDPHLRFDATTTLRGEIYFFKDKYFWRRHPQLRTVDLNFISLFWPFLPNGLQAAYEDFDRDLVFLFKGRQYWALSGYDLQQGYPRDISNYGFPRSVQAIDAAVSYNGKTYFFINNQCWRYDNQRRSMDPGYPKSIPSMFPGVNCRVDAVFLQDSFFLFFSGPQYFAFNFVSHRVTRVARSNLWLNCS

With `O=C(O)[C@H]1[C@H](Cn2nnc3ccccc3c2=O)CC[C@@H]1C(=O)c1ccc(-c2ccc(Cl)cc2)cc1` (racemic) [Comparative Example A-1, (1RS,2RS,5SR)-2-[(4′-chlorobiphenyl-4-yl)carbonyl]-5-[(4-oxo-1,2,3-benzotriazin-3(4H)-yl)methyl]cyclopentanecarboxylic acid (racemate)], the IC50 in test [1] worked out at 1.1 nM; in test [2] it was 310 nM; in test [3], 15 nM; in test [4] it was 4.6 nM.
In the same order, the values of `CCCCCOc1ccc(C(=O)CC(CCn2nnc3ccccc3c2=O)C(=O)O)cc1` (racemic) [Comparative Example B-1, (+/−)-4-Oxo-2-[2-(4-oxo-1,2,3-benzotriazin-3(4H)-yl)ethyl]-4-[4-(pentyloxy)phenyl]butanoic acid (racemate)] are 2300 nM, more than 40000 nM, 1400 nM and 5700 nM.
In the same order, the values of `O=C(O)[C@H]1[C@H](Cn2nnc3ccccc3c2=O)CC[C@@H]1C(=O)c1ccc(OCc2ccccc2)cc1` (racemic) [Example 1, (+/−)-(1RS,2RS,5SR)-2-[4-(Benzyloxy)benzoyl]-5-[(4-oxo-1,2,3-benzotriazin-3(4H)-yl)methyl]cyclopentanecarboxylic acid (racemate)] are 71 nM, 500 nM, 46 nM and 21 nM.
In the same order, the values of `CCCCCOc1ccc(C(=O)CC(CCn2nnc3ccccc3c2=O)C(=O)O)cc1` (single isomer, unassigned; enantiomer 1) [Comparative Example B-2, (+)-4-Oxo-2-[2-(4-oxo-1,2,3-benzotriazin-3(4H)-yl)ethyl]-4-[4-(pentyloxy)phenyl]butanoic acid (enantiomer 1)] are 1080 nM, 22500 nM, 525 nM and 1900 nM.
Turning to `O=C(O)[C@@H]1[C@@H](Cn2nnc3ccccc3c2=O)CC[C@H]1C(=O)c1ccc(-c2ccc(Cl)cc2)cc1` (single isomer, unassigned; enantiomer 2) [Comparative Example A-3, (1RS,2RS,5SR)-2-[(4′-Chlorobiphenyl-4-yl)carbonyl]-5-[(4-oxo-1,2,3-benzotriazin-3(4H)-yl)methyl]cyclopentanecarboxylic acid (enantiomer 2)], the IC50 was less than 0.61 nM in test [1], 145 nM in test [2], 6.2 nM in test [3] and less than 0.61 nM in test [4].
For `O=C(O)[C@H]1[C@H](Cn2nnc3ccccc3c2=O)CC[C@@H]1C(=O)c1ccc(OCc2ccccc2)cc1` [Example 2, (+)-(1S,2S,5R)-2-[4-(Benzyloxy)benzoyl]-5-[(4-oxo-1,2,3-benzotriazin-3(4H)-yl)methyl]cyclopentanecarboxylic acid], the IC50 in test [1] came to 34.5 nM; in test [2] it was 420 nM; in test [3], 22 nM; in test [4], 17.5 nM.

One may read the IC50 as the concentration that gives 50% inhibition. A lower IC50 goes with greater potency.
